Target: ATX (human His-tagged) (Homo sapiens (Human), UniProt Q13822)
Test: Human ATX enzyme inhibition assay (fluorescence quenching, MR121 substrate)
Type: biochemical
Settings: 30 nM ATX, 1 μM MR121 substrate, 30° C., pH 8.0
Method: Human ATX Enzyme Inhibition Assay
Assay working solutions were made as follows:
Assay buffer (50 mM Tris-HCl, 140 mM NaCl, 5 mM KCl, 1 mM CaCl2, 1 mM MgCl2, 0.01% Triton-X-100, pH 8.0;
MR121 substrate solution: MR121 substrate stock solution (800 μM MR121 substrate in DMSO), diluted to 2-5× final concentration in assay buffer.
10 μL of MR121 substrate solution was added (1 μM final concentration), mixed 30 times and then incubated for 15 minutes at 30° C.

SMILES	IC50
O=C(OCc1ccc(OC(F)(F)F)c(F)c1)N1C[C@@H]2CN(C(=O)c3ccc4[nH]nnc4c3)C[C@H]2C1 [Example 4.43, (3aS,6aS)-5-(1H-benzotriazole-5-carbonyl)-hexahydro-pyrrolo[3,4-c]pyrrole-2-carboxylic acid 3-fluoro-4-trifluoromethoxy-benzyl ester]	4 nM
O=C(OCc1cc(Cl)cc(Cl)c1)N1CC[C@H]2CN(C(=O)c3ccc4[nH]nnc4c3)C[C@H]2C1 (relative stereo) [Example 1.10, cis-3,5-dichlorobenzyl 2-(1H-benzo[d][1,2,3]triazole-5-carbonyl)hexahydro-1H-pyrrolo[3,4-c]pyridine-5(6H)-carboxylate]	78 nM
O=C(OCc1ccc(OC(F)(F)C(F)F)cc1)N1C[C@@H]2CN(C(=O)c3ccc4[nH]nnc4c3)C[C@H]2C1 [Example 4.38, (3aS,6aS)-5-(1H-benzotriazole-5-carbonyl)-hexahydro-pyrrolo[3,4-c]pyrrole-2-carboxylic acid 4-(1,1,2,2-tetrafluoro-ethoxy)-benzyl ester]	24 nM
O=C(/C=C/c1cc(Cl)cc(Cl)c1)N1CC[C@@H]2CN(C(=O)c3ccc4[nH]nnc4c3)C[C@H]2C1 (relative stereo) [Example 13, (E)-1-[trans-2-(1H-Benzotriazole-5-carbonyl)-octahydro-pyrrolo[3,4-c]pyridin-5-yl]-3-(3,5-dichloro-phenyl)-prop-2-en-1-one]	57 nM
CC(C)c1cc(C#N)ccc1COC(=O)N1C[C@@H]2CN(C(=O)[C@@H]3CCc4[nH]nnc4C3)C[C@H]2C1 [Example 4.46, (3aS,6aS)-5-((R)-4,5,6,7-tetrahydro-1H-benzotriazole-5-carbonyl)-hexahydro-pyrrolo[3,4-c]pyrrole-2-carboxylic acid 4-cyano-2-isopropyl-benzyl ester]	5 nM
CS(=O)(=O)c1cc(Cl)cc(COC(=O)N2CC[C@@H]3CN(C(=O)c4ccc5[nH]nnc5c4)C[C@@H]3CC2)c1 [Example 4.06, (3aS,8aR)-2-(1H-benzotriazole-5-carbonyl)-octahydro-pyrrolo[3,4-d]azepine-6-carboxylic acid 3-chloro-5-methanesulfonyl-benzyl ester]	12 nM
Cc1cc(COC(=O)N2C[C@@H]3CN(C(=O)[C@@H]4CCc5[nH]nnc5C4)C[C@H]3C2)c(C(C)C)cc1C#N [Example 4.47, (3aS,6aS)-5-((R)-4,5,6,7-tetrahydro-1H-benzotriazole-5-carbonyl)-hexahydro-pyrrolo[3,4-c]pyrrole-2-carboxylic acid 4-cyano-2-isopropyl-5-methyl-benzyl ester]	4 nM
COc1cc(Cl)cc(COC(=O)N2C[C@@H]3CN(C(=O)c4ccc5[nH]nnc5c4)C[C@@H]3C2)c1 [Example 4.30, (3aR,6aS)-3-chloro-5-methoxybenzyl 5-(1H-benzo[d][1,2,3]triazole-5-carbonyl)hexahydropyrrolo[3,4-c]pyrrole-2(1H)-carboxylate]	50 nM
O=C(OCc1cc(Cl)cc(Cl)c1)N1C[C@@H]2CN(C(=O)c3cc4c(cn3)[nH]c3ccccc34)C[C@@H]2C1 [Example 1.04, (3aR,6aS)-3,5-dichlorobenzyl 5-(9H-pyrido[3,4-b]indole-3-carbonyl)hexahydropyrrolo[3,4-c]pyrrole-2(1H)-carboxylate]	127 nM
O=C(OCc1ccc(OCC(F)(F)F)cc1)N1C[C@@H]2CN(C(=O)c3ccc4[nH]nnc4c3)C[C@H]2C1 [Example 4.44, (3aS,6aS)-5-(1H-benzotriazole-5-carbonyl)-hexahydro-pyrrolo[3,4-c]pyrrole-2-carboxylic acid 4-(2,2,2-trifluoro-ethoxy)-benzyl ester]	6 nM
O=C1N[C@@H]2CCN(C(=O)N3C[C@H]4CCN(C(=O)/C=C/c5ccc(OC(F)(F)F)cc5)CC[C@H]4C3)C[C@@H]2O1 [Example 8.03]	911 nM
O=C(OCCC12CC3CC(CC(C3)C1)C2)N1C[C@@H]2CN(C(=O)c3ccc4[nH]nnc4c3)C[C@@H]2C1 [Example 4.17, (3aS,6aR)-5-(1H-benzotriazole-5-carbonyl)-hexahydro-pyrrolo[3,4-c]pyrrole-2-carboxylic acid 2-adamantan-1-yl-ethyl ester]	799 nM
CCOc1cc(C(=O)N2C[C@@H]3CN(C(=O)[C@@H]4CCc5[nH]nnc5C4)C[C@H]3C2)nc2ccccc12 [Example 1.60, (4-ethoxyquinolin-2-yl)((3aS,6aS)-5-((R)-4,5,6,7-tetrahydro-1H-benzo[d][1,2,3]triazole-5-carbonyl)hexahydropyrrolo[3,4-c]pyrrol-2(1H)-yl)methanone]	12 nM
CC1C(COC(=O)N2C[C@@H]3CN(C(=O)c4ccc5[nH]nnc5c4)C[C@@H]3C2)[C@H]2CC[C@@H]1C2 (stereo partly drawn) [Example 4.31, (3aS,6aR)-5-(1H-benzotriazole-5-carbonyl)-hexahydro-pyrrolo[3,4-c]pyrrole-2-carboxylic acid (1S,4R)-3-methyl-bicyclo[2.2.1]hept-2-ylmethyl ester]	1820 nM
O=C(OCc1ccc(OC(F)(F)F)cn1)N1C[C@@H]2CN(C(=O)c3ccc4[nH]nnc4c3)C[C@H]2C1 [Example 4.45, (3aS,6aS)-5-(1H-benzotriazole-5-carbonyl)-hexahydro-pyrrolo[3,4-c]pyrrole-2-carboxylic acid 5-trifluoromethoxy-pyridin-2-ylmethyl ester]	7 nM
CC(C)c1ccccc1/C=C/C(=O)N1CC[C@@H]2CN(C(=O)c3ccc4[nH]nnc4c3)C[C@@H]2CC1 [Example 1.22, (E)-1-[(3aS,8aR)-2-(1H-benzotriazole-5-carbonyl)-octahydro-pyrrolo[3,4-d]azepin-6-yl]-3-(2-isopropyl-phenyl)-prop-2-en-1-one]	9 nM
O=C(OCc1cc(Cl)cc(Cl)c1)N1C[C@H]2CN(Cc3ccc4[nH]ncc4c3)C[C@H]2C1 [Example 6.02]	2810 nM

Next, values leading:

IC50	SMILES
32 nM	O=C(CCc1ccc(-c2cccnc2)cc1)N1C[C@@H]2CN(C(=O)c3ccc4[nH]nnc4c3)C[C@H]2C1 [Example 17.12, 1-[(3aR,6aR)-5-(1H-benzotriazole-5-carbonyl)-hexahydro-pyrrolo[3,4-c]pyrrol-2-yl]-3-(4-pyridin-3-yl-phenyl)-propan-1-one]
6 nM	N#Cc1cc(Cl)cc(/C=C/C(=O)N2C[C@@H]3CN(C(=O)c4ccc5[nH]nnc5c4)C[C@H]3C2)c1 [Example 15.50]
68 nM	O=C(CCc1ccc(C(F)(F)F)nc1)N1C[C@@H]2CN(C(=O)c3ccc4[nH]nnc4c3)C[C@H]2C1 [Example 15.62]
7 nM	CC(C)Oc1cc(C(=O)N2C[C@@H]3CN(C(=O)[C@@H]4CCc5[nH]nnc5C4)C[C@H]3C2)cc2ccccc12 [Example 19.24, [(3aS,6aS)-5-[(5R)-4,5,6,7-tetrahydro-1H-benzotriazole-5-carbonyl]-1,3,3a,4,6,6a-hexahydropyrrolo[3,4-c]pyrrol-2-yl]-(4-propan-2-yloxynaphthalen-2-yl)methanone]
42 nM	O=C(/C=C/c1ccc(OC(F)(F)F)c(F)c1)N1CC[C@@H]2CN(C(=O)NCc3cnn[nH]3)C[C@@H]2CC1 [Example 9.03]
9 nM	O=C(/C=C/c1ccc(Cl)cc1)N1C[C@H]2CCN(C(=O)c3ccc4[nH]nnc4c3)CC[C@H]2C1 [Example 15.19]
309 nM	O=C(CCc1ccc(OC(F)(F)F)cc1)N1CC[C@@H]2CN(Cc3ccc4[nH]nnc4c3)C[C@H]2C1 (relative stereo) [Example 17.16, 1-[trans-2-(1H-benzotriazol-5-ylmethyl)-octahydro-pyrrolo[3,4-c]pyridin-5-yl]-3-(4-trifluoromethoxy-phenyl)-propan-1-one]
3 nM	O=C(CCc1ccc(-c2ccccc2)cc1)N1C[C@@H]2CN(C(=O)c3ccc4[nH]nnc4c3)C[C@H]2C1 [Example 15.65]
4420 nM	O=C(/C=C/c1ccncc1)N1CC[C@@H]2CN(C(=O)c3ccc4[nH]nnc4c3)C[C@@H]2CC1 [Example 15.28]
3950 nM	O=C(/C=C/c1cccnc1)N1CC[C@@H]2CN(C(=O)c3ccc4[nH]nnc4c3)C[C@@H]2CC1 [Example 15.17]
8 nM	O=C(/C=C/c1ccc(OC(F)(F)F)cc1)N1C[C@@H]2CN(C(=O)c3ccc4[nH]nnc4c3)CC[C@H]2C1 (single isomer, unassigned) [Example 15.26]
16 nM	CC(C)c1ccccc1CCC(=O)N1CC[C@@H]2CN(C(=O)c3ccc4[nH]nnc4c3)C[C@@H]2CC1 [Example 17.08, 1-[(3aS,8aR)-2-(1H-benzotriazole-5-carbonyl)-octahydro-pyrrolo[3,4-d]azepin-6-yl]-3-(2-isopropyl-phenyl)-propan-1-one]
28 nM	O=C(CCc1ccc(-c2ccncc2)cc1)N1C[C@@H]2CN(C(=O)c3ccc4[nH]nnc4c3)C[C@H]2C1 [Example 17.11, 1-[(3aR,6aR)-5-(1H-benzotriazole-5-carbonyl)-hexahydro-pyrrolo[3,4-c]pyrrol-2-yl]-3-(4-pyridin-4-yl-phenyl)-propan-1-one]
18 nM	CS(=O)(=O)c1cc(Cl)cc(/C=C/C(=O)N2C[C@@H]3CN(C(=O)c4ccc5[nH]nnc5c4)C[C@H]3C2)c1 [Example 15.46]
1360 nM	O=C(COc1cccc(OC(F)(F)F)c1)N1C[C@@H]2CN(C(=O)c3ccc4[nH]nnc4c3)C[C@@H]2C1 [Example 15.71]
12 nM	O=C(COc1ccc(OC(F)(F)F)cc1)N1C[C@@H]2CN(C(=O)c3ccc4[nH]nnc4c3)C[C@H]2C1 [Example 15.63]
